Consider 1 compound from PubChem BioAssay AID624118 (National Center for Advancing Translational Sciences (NCATS), 2012).

The series deals with Cytochrome P450 3A4 (Homo sapiens) (UniProt P08684). In words: qHTS Assay for Inhibitors of Bacillus subtilis Sfp phosphopantetheinyl transferase (PPTase): CYP 3A4. The following applies: CYP3A4 inhibition, 3 uM, ADME profiling; active compounds read high. The text has this:
The covalent attachment of a phosphopantetheinyl (4'-PP) arm to a variety of synthases and other proteins is a key posttranslational protein modification. The 4'-PP is installed on the proteins post-translationally from coenzyme A (CoA) on a conserved serine residue by action of phosphopantetheinyl transferase (PPTase) enzymes. Phosphopantetheinylation is essential for synthase activity, and removal of the PPTase gene precludes natural product synthesis in microorganisms, or in the case of fatty acid biosynthesis, renders the organism unviable. PPTase enzymes belong to a distinct structural superfamily. Within bacteria, these enzymes are grouped into two classes based upon primary structure, the AcpS-Type and Sfp-Type PPTases.
Sfp-type PPTases, corresponding to an activator of surfactin production in Bacillus subtilis, are responsible for modifying type I polyketide and nonribosomal peptide synthases of prokaryotes. Sfp-type PPTases are responsible for the activation of a variety of pathogen-associated virulence factors. Among these compounds are toxins such as mycolactone from Mycobacterium ulcerans, siderophores such as vibriobactin from Vibrio cholerae or mycobactin from Mycobacterium tuberculosis, as well as the mycolic acids which form the waxy cell wall of Mycobacteria. The biosyntheses of these natural products are considered attractive targets for drug design. […]

Chain of Cytochrome P450 3A4 (Homo sapiens) (P08684 whole entry, looked up): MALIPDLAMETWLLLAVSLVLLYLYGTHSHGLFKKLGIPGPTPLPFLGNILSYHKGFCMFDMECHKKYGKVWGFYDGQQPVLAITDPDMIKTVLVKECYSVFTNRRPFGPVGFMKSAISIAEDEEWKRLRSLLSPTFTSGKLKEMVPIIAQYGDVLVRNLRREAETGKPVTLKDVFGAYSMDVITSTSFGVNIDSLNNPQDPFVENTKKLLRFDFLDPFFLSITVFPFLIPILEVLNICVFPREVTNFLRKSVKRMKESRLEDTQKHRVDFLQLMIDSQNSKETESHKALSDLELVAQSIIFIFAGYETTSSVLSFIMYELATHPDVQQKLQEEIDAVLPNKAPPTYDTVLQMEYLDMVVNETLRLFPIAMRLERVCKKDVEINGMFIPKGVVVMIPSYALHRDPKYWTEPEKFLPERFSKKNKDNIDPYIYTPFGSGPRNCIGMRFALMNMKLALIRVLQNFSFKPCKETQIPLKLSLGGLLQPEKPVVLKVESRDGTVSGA

As usually defined, the inhibition is the share of the control response that was lost under treatment. Take `COc1ccnc(NC(=S)N2CCN(c3ncc(C(F)(F)F)cc3Cl)CC2)c1`: the inhibition was 20%.
